Results: patent publication US20030171329A1, “Stable compositions comprising tezacitabine” (priority 2002, published 2003)

Key:
[1] = Stability of FMdC solution 10 mg/mL in various buffer systems at 40° C. (Example 4, HPLC); assay type: physicochemical; settings: for pH: 10 mg/mL
Procedure: In this study the stability of FMdC solution 10 mg/mL was studied in various buffer systems. FMdC solutions were made up and pH adjusted to target with sodium hydroxide. Solution samples were placed in stoppered glass vials and stored at 40° C. FMdC content was assessed at various times using the HPLC method described in Example 3 above.

[2] = Stability of FMdC at various concentrations in 100 mM sodium phosphate pH 9 (Example 3, HPLC); assay type: physicochemical
Procedure: In this study the stability of FMdC at various concentrations in 100 mM sodium phosphate pH 9 was studied. FMdC solutions were made up and pH adjusted to target with sodium hydroxide. Solution samples were placed in stoppered glass vials and stored at the various temperatures. […] Flow rate was 1.0 mL/min. FMdC solution samples were diluted in mobile phase to a nominal FMdC concentration of 80 μg/mL, then injected onto the column in a volume of 10 μL. Detection was by UV at 268 nm.

[3] = test system: human and rodent tumors; settings: tumors of lung, colon, breast, prostate, pancreas, leukemias and lymphomas; cited from earlier work
[4] = FMdC 2 mg/mL, 100 mM sodium phosphate pH 9, 25° C., 0 mon
[5] = FMdC 2 mg/mL, 100 mM sodium phosphate pH 9, 25° C., 6 mon
[6] = FMdC 2 mg/mL, 100 mM sodium phosphate pH 9, 25° C., 9 mon
[7] = FMdC 2 mg/mL, 100 mM sodium phosphate pH 9, 25° C., 20 mon
[8] = FMdC 2 mg/mL, 100 mM sodium phosphate pH 9, 40° C., 0 mon
[9] = FMdC 2 mg/mL, 100 mM sodium phosphate pH 9, 40° C., 3 mon
[10] = FMdC 2 mg/mL, 100 mM sodium phosphate pH 9, 40° C., 6 mon
[11] = FMdC 2 mg/mL, 100 mM sodium phosphate pH 9, 40° C., 9 mon
[12] = FMdC 2 mg/mL, 100 mM sodium phosphate pH 9, 50° C., 0 mon
[13] = FMdC 2 mg/mL, 100 mM sodium phosphate pH 9, 50° C., 0.5 mon
[14] = FMdC 2 mg/mL, 100 mM sodium phosphate pH 9, 50° C., 1.0 mon
[15] = FMdC 2 mg/mL, 100 mM sodium phosphate pH 9, 50° C., 2.0 mon
[16] = FMdC 2 mg/mL, 100 mM sodium phosphate pH 9, 50° C., 3.0 mon
[17] = FMdC 10 mg/mL, 100 mM sodium phosphate pH 9, 25° C., 0 mon
[18] = FMdC 10 mg/mL, 100 mM sodium phosphate pH 9, 25° C., 2.8 mon
[19] = FMdC 10 mg/mL, 100 mM sodium phosphate pH 9, 25° C., 4.0 mon
[20] = FMdC 10 mg/mL, 100 mM sodium phosphate pH 9, 25° C., 6.5 mon
[21] = FMdC 10 mg/mL, 100 mM sodium phosphate pH 9, 25° C., 7.9 mon
[22] = FMdC 10 mg/mL, 100 mM sodium phosphate pH 9, 25° C., 16 mon
[23] = FMdC 10 mg/mL, 100 mM sodium phosphate pH 9, 25° C., 23 mon
[24] = FMdC 10 mg/mL, 100 mM sodium phosphate pH 9, 40° C., 0 mon
[25] = FMdC 10 mg/mL, 100 mM sodium phosphate pH 9, 40° C., 2.0 mon
[26] = FMdC 10 mg/mL, 100 mM sodium phosphate pH 9, 40° C., 3.0 mon
[27] = FMdC 10 mg/mL, 100 mM sodium phosphate pH 9, 40° C., 3.7 mon
[28] = FMdC 10 mg/mL, 100 mM sodium phosphate pH 9, 40° C., 4.1 mon
[29] = FMdC 10 mg/mL, 100 mM sodium phosphate pH 9, 50° C., 0 mon
[30] = FMdC 10 mg/mL, 100 mM sodium phosphate pH 9, 50° C., 0.3 mon
[31] = FMdC 10 mg/mL, 100 mM sodium phosphate pH 9, 50° C., 0.7 mon
[32] = FMdC 10 mg/mL, 100 mM sodium phosphate pH 9, 50° C., 0.9 mon
[33] = FMdC 10 mg/mL, 100 mM sodium phosphate pH 9, 50° C., 1.4 mon
[34] = FMdC 10 mg/mL, 100 mM sodium phosphate pH 9, 50° C., 2.1 mon

SMILES: Nc1ccn([C@@H]2O[C@H](CO)[C@@H](O)/C2=C\F)c(=O)n1 [FMdC, (E)-2′-deoxy-2′-(fluoromethylene)cytidine]
- pH ([1]; 20 mM TRIS, 0 mon): 9.42
- pH ([1]; 20 mM TRIS, 1 mon): 9.24
- pH ([1]; 20 mM TRIS, 2 mon): 9.05
- pH ([1]; 20 mM TRIS, 3 mon): 8.89
- pH ([1]; 20 mM TRIS, 4 mon): 8.58
- pH ([1]; 20 mM glycine, 0 mon): 9.60
- pH ([1]; 20 mM glycine, 1 mon): 9.32
- pH ([1]; 20 mM glycine, 2 mon): 9.24
- pH ([1]; 20 mM glycine, 3 mon): 9.11
- pH ([1]; 20 mM glycine, 4 mon): 8.86
- pH ([1]; 20 mM sodium phosphate, 0 mon): 9.36
- pH ([1]; 20 mM sodium phosphate, 1 mon): 8.32
- pH ([1]; 20 mM sodium phosphate, 2 mon): 7.76
- pH ([1]; 20 mM sodium phosphate, 3 mon): 7.72
- pH ([1]; 20 mM sodium phosphate, 4.7 mon): 4.65
- pH ([1]; 100 mM sodium phosphate, 0 mon): 9.44
- pH ([1]; 100 mM sodium phosphate, 1 mon): 9.14
- pH ([1]; 100 mM sodium phosphate, 2 mon): 8.69
- pH ([1]; 100 mM sodium phosphate, 3 mon): 8.47
- pH ([1]; 100 mM sodium phosphate, 4 mon): 8.18
- pH ([1]; 100 mM sodium phosphate, 6 mon): 7.80
- pH ([1]; 100 mM sodium phosphate, 9 mon): 7.14
- comparison of buffers in stabilizing FMdC ([1]; same buffer concentrations (20 mM)): glycine and TRIS are superior to phosphate
- stability in words ([2]; 25° C., 2 and 10 mg/mL in 100 mM sodium phosphate pH 9): stable for over eighteen months
- FMdC [2, 4]: 100.0 % of initial
- pH [2, 4]: 9.18
- FMdC [2, 5]: 100.0 % of initial
- pH [2, 5]: 9.00
- FMdC [2, 6]: 100.5 % of initial
- pH [2, 6]: 9.03
- FMdC [2, 7]: 100.0 % of initial
- pH [2, 7]: 9.00
- FMdC [2, 8]: 100.0 % of initial
- pH [2, 8]: 9.18
- FMdC [2, 9]: 97.0 % of initial
- pH [2, 9]: 8.89
- FMdC [2, 10]: 92.5 % of initial
- pH [2, 10]: 8.55
- FMdC [2, 11]: 88.4 % of initial
- pH [2, 11]: 8.44
- FMdC [2, 12]: 100.0 % of initial
- pH [2, 12]: 9.18
- FMdC [2, 13]: 100.0 % of initial
- pH [2, 13]: 8.84
- FMdC [2, 14]: 97.4 % of initial
- pH [2, 14]: 8.84
- FMdC [2, 15]: 88.7 % of initial
- pH [2, 15]: 8.39
- FMdC [2, 16]: 80.4 % of initial
- pH [2, 16]: 8.16
- FMdC [2, 17]: 100.0 % of initial
- pH [2, 17]: 9.29
- FMdC [2, 18]: 98.9 % of initial
- pH [2, 18]: 9.25
- FMdC [2, 19]: 100.4 % of initial
- pH [2, 19]: 9.17
- FMdC [2, 20]: 99.3 % of initial
- pH [2, 20]: 9.09
- FMdC [2, 21]: 98.1 % of initial
- pH [2, 21]: 9.06
- FMdC [2, 22]: 97.3 % of initial
- pH [2, 22]: 8.73
- FMdC [2, 23]: 97.1 % of initial
- pH [2, 23]: 8.74
- FMdC [2, 24]: 100.0 % of initial
- pH [2, 24]: 9.29
- FMdC [2, 25]: 98.1 % of initial
- pH [2, 25]: 8.60
- FMdC [2, 26]: 95.8 % of initial
- pH [2, 26]: 8.40
- FMdC [2, 27]: 96.9 % of initial
- pH [2, 27]: 8.19
- FMdC [2, 28]: 94.9 % of initial
- pH [2, 28]: 8.08
- FMdC [2, 29]: 100.0 % of initial
- pH [2, 29]: 9.29
- FMdC [2, 30]: 99.6 % of initial
- pH [2, 30]: 8.75
- FMdC [2, 31]: 94.4 % of initial
- pH [2, 31]: 8.24
- FMdC [2, 32]: 89.5 % of initial
- pH [2, 32]: 7.91
- FMdC [2, 33]: 82.0 % of initial
- pH [2, 33]: 7.52
- FMdC [2, 34]: 67.4 % of initial
- pH [2, 34]: 7.01
- antitumor activity in animal studies [3]: exhibited activity
